# Test results taken from patent US9139524B2, “Fluorinated bridged spiro[2.4]heptane derivatives as ALX receptor agonists” (Actelion Pharmaceuticals Ltd., priority 2012, dated 2015).
# Experiments:
# human ALX receptor = target: T1, human ALX receptor (Homo sapiens, UniProt P25090); assay: Intracellular calcium measurements (FLIPR), ALX receptor agonistic activity; assay type: cell-based; conditions: HEK293-hALXR-Gα16 cells; values normalized to WKYMVm 10 nM; read-out: EC50 (agonistic activity with respect to the ALX receptor)
# T1 construct: expressed in transfected cells; host or cells: HEK293 (HEK293-hALXR-Gα16)
# T1 sequence (P25090 1-351): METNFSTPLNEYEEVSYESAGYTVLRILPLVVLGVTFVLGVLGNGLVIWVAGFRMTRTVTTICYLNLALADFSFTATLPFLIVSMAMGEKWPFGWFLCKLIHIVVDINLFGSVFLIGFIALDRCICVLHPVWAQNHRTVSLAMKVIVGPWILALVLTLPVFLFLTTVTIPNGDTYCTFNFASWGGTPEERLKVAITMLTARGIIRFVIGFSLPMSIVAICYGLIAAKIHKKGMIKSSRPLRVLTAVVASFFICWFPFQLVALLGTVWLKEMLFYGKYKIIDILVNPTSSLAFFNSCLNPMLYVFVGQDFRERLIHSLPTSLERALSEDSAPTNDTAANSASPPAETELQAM
# Description: The ALX receptor agonistic activities of the compounds of formula (I) are determined in accordance with the following experimental method.
# Cells expressing recombinant human ALX receptor and the G-protein Gα16 (HEK293-hALXR-Gα16) were grown to 80% confluency in Growing Medium (GM). Cells were detached from culture dishes with a cell dissociation buffer (Invitrogen, 13151-014), and collected by centrifugation at 1′000 rpm at rt for 5 min in Assay Buffer (AB) (equal parts of Hank's BSS (Gibco, 14065-049) and DMEM without Phenol Red (Gibco, 11880-028)). After 60 min incubation at 37° C. under 5% CO2 in AB supplemented with 1 μM Fluo-4 (AM) (Invitrogen, F14202) and 20 mM HEPES (Gibco, 15630-056), the cells were washed and resuspended in AB. They were then seeded onto 384-well FLIPR assay plates (Greiner, 781091) at 50′000 cells in 70 μl per well and sedimented by centrifugation at 1′000 rpm for 1 min. Stock solutions of test compounds were made up at a concentration of 10 mM in DMSO, and serially diluted in AB to concentrations required for activation dose response curves. WKYMVm (Phoenix Peptides) was used as a reference agonist. A FLIPR Tetra instrument (Molecular Devices) was operated according to the manufacturer's standard instructions, adding 4 μl of test compound dissolved at 10 mM in DMSO and diluted prior to the experiment in assay buffer to obtain the desired final concentration. Changes in fluorescence were monitored before and after the addition of test compounds at lex=488 nm and lem=540 nm. Emission peak values above base level after compounds addition were exported after base line subtraction. Values were normalized to high-level control (WKYMVm compound, 10 nM final concentration) after subtraction of the base line value (AB addition).
# [1] = Determination of pharmacokinetic parameters in rats after single oral or intravenous administration; assay type: in vivo; conditions: Wistar, plasma, rat, p.o. 1 mg/kg; for bioavailability: oral, calculated with a reference AUC after iv administration of solutions at 1 mg/kg, read-out: F (bioavailability); for AUC: po, read-out: AUC (area under curve after p.o. administration)
# Description: The goal of the study was to evaluate the pharmacokinetics of compounds after a single oral administration or after an intravenous route in normal, conscious rats.
# • Anaesthesia: Wistar rats were pretreated with 0.03 mg/kg Buprenorphine s.c. (an analgesic-stock solution at 0.03 mg/ml) and 30 minutes later they were anaesthetized with a mixture of 90 mg/kg Ketamine and 10 mg/kg Xylazine i.p. or under Isoflurane inhalation anesthesia. • Rat preparation: The top of the head and the neck were shaved and disinfected with Merfen and Betadine. • Surgery: While under (isoflurane) anaesthesia, an incision was made above 1.5 cm at the top of the head (between the ears) in order to fix the anchor button. A second incision was made above 1.5-2 cm on the neck (near the right clavicle). A catheter (ID/DI: 0.508 mm, Ulrich Swiss) was tunnelled with a trocar under the skin and an access port was fixed with 4-0 silk. The catheter was then filled with a heparinized saline solution (100 Ul/ml), clamped with a hemostat to prevent loss of saline, and the wound was closed with tissue adhesive (3M Vetbond). Next, the jugular vein was isolated and ligated cranially with 4-0 silk, a second ligature, placed caudal to the first ligature, was not tightened. Using iridectomy scissors, a V-shaped hole was cut in the vein, and the catheter was gently pushed into the vessel. All ligatures were then tied around the vessel and the catheters. A NaCl-heparin 100 Ul flush was made to test the blood flow. The wound was then closed with tissue adhesive and a suture. Flush again. • Post operative care: After the operation each animal was housed separately in a small box with food (directly on the floor of the box) and water ad libitum and access to solid drink. One to two days were allowed for recovery from surgery prior to the experiment. The day following the operation, animals were flushed with NaCl-heparin 100 Ul/mL and blood collection tubes were prepared with 10 μl EDTA added to each tube. • Experiment: Tested compounds were given at 1 mg/kg orally and intravenously. The oral formulation was as a solution in Gelatine (98% of a 7.5% Gelatine solution in Water and 2% DMSO) and the intravenous formulation was a solution in water with pH adjustment or in cyclodextrine (5% DMSO, 95% HPBCD30% (w/v)). After application of the test-compound (p.o. or i.v.), blood samples ([…]) were taken at different times. The samples were immediately put in ice before being centrifuged (4° C., 8 min, 16000 g). The plasma was then aspirated and placed into a 96 well plate. The plate was kept at −20° C. until analysis could be performed. • Plasma concentration of the compound was determined using a LC-MS/MS method.
EC50 (human ALX receptor) [nM],bioavailability [1] [%],AUC [1] [ng·h/mL],SMILES
12.7,–,–,"O=C(N[C@H]1CCNC[C@H]1F)[C@H]1[C@H](C(=O)NCc2ccc(Br)cc2F)[C@@H]2CC[C@H]1C21CC1 (mixture of isomers) [Example 4, (1S,2R,3R,4R)—N^2-(4-Bromo-2-fluorobenzyl)-N^3-(cis-3-fluoropiperidin-4-yl)spiro[bicyclo[2.2.1]heptane-7,1′-cyclopropane]-2,3-dicarboxamide]"
300,–,–,"O=C(N[C@@H]1CNC[C@@H]1F)[C@H]1[C@H](C(=O)NCc2ccc(Br)cc2F)[C@@H]2CC[C@H]1C21CC1 (mixture of isomers) [Example 5, (1S,2R,3R,4R)—N^2-(4-Bromo-2-fluorobenzyl)-N^3-(cis-4-fluoropyrrolidin-3-yl)spiro[bicyclo[2.2.1]heptane-7,1′-cyclopropane]-2,3-dicarboxamide]"
4.5,–,–,"O=C(N[C@@H]1CNC[C@H]1F)[C@H]1[C@H](C(=O)NCc2ccc(Br)cc2F)[C@@H]2CC[C@H]1C21CC1 (mixture of isomers) [Example 6, (1S,2R,3R,4R)—N^2-(4-Bromo-2-fluorobenzyl)-N^3-(trans-4-fluoropyrrolidin-3-yl)spiro[bicyclo[2.2.1]heptane-7,1′-cyclopropane]-2,3-dicarboxamide]"
1.9,–,–,"O=C(N[C@@H]1CCNC[C@H]1F)[C@H]1[C@H](C(=O)NCc2ccc(Br)cc2F)[C@@H]2CC[C@H]1C21CC1 (single isomer, unassigned; diastereoisomer 1) [Example 2]"
2,12,49.9,"O=C(N[C@@H]1CCNC[C@H]1F)[C@H]1[C@H](C(=O)NCc2ccc(Br)cc2F)[C@@H]2CC[C@H]1C21CC1 (single isomer, unassigned; diastereoisomer 2) [Example 3]"
41,–,–,"O=C(NC1CCNCC1(F)F)[C@H]1[C@H](C(=O)NCc2ccc(Br)cc2F)[C@@H]2CC[C@H]1C21CC1 (stereo partly drawn) [Example 1, (1S,2R,3R,4R)—N^2-(4-Bromo-2-fluorobenzyl)-N^3-(3,3-difluoropiperidin-4-yl)spiro[bicyclo[2.2.1]heptane-7,1′-cyclopropane]-2,3-dicarboxamide]"
–,0.3,6.34,"O=C(NC1CCNCC1)[C@H]1[C@H](C(=O)NCc2ccc(Br)cc2F)[C@@H]2CC[C@H]1C21CC1 [Reference Example 2, (1S,2R,3R,4R)—N^2-(4-Bromo-2-fluorobenzyl)-N^3-(piperidin-4-yl)spiro[bicyclo[2.2.1]heptane-7,1′-cyclopropane]-2,3-dicarboxamide, reference compound]"
